What was measured:
[1] = Stability to Phase I metabolism in rat S9 liver fraction; type: in vitro ADME; conditions: after 90 min, 37° C.
Experimental: Test compounds were incubated in rat and human liver S9 fraction at 37° C. up to 90 minutes in order to evaluate their stability to Phase I metabolism by hepatic enzymes. […] The reaction was stopped placing samples on ice bath and adding acidified acetonitrile. After centrifugation (10 minutes at 14000 rpm) an aliquot of the supernatant was diluted water, filtered with 0.45 μm regenerated cellulose syringe filters and injected in HPLC-UV or in LC-MS/MS. The percentages of the amount remaining at the various incubation times with respect to the initial amount were calculated. The intrinsic clearance was also calculated.

[2] = target: T1, recombinant human HDAC6 (Homo sapiens, UniProt Q9UBN7); test: Enzymatic screening on recombinant human HDAC6; type: biochemical; conditions: Table 2; read-out: HDAC6 IC50
T1 sequence (Q9UBN7 1-1215): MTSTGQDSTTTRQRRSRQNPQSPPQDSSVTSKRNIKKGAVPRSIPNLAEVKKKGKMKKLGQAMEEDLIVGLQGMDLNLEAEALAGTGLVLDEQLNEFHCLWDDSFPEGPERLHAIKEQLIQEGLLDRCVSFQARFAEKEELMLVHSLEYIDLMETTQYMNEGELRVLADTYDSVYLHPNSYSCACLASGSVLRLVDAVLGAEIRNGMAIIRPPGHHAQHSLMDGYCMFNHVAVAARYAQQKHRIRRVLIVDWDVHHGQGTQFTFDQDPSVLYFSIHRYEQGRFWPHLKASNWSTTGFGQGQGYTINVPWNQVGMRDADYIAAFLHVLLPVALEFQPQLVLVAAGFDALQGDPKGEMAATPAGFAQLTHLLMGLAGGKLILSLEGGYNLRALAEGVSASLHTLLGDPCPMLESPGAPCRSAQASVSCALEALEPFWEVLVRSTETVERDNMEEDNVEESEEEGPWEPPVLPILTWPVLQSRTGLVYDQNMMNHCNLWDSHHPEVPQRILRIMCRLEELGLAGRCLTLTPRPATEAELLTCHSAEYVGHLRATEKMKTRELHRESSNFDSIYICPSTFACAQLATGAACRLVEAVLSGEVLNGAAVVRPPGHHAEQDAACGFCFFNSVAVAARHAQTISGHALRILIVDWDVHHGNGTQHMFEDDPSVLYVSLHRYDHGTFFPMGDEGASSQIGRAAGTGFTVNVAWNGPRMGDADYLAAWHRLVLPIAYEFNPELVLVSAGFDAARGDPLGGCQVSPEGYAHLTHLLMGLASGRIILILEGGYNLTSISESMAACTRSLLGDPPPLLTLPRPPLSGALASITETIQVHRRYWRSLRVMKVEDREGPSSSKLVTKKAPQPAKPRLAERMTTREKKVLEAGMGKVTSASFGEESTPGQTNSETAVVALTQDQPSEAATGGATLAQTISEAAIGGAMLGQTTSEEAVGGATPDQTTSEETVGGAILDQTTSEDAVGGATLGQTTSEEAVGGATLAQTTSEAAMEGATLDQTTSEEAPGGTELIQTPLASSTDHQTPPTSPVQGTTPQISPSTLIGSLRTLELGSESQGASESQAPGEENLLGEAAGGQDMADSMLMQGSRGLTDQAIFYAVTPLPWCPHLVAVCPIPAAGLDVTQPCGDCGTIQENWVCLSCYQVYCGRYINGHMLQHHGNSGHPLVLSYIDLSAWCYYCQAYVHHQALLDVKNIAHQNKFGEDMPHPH
Outline: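 Deacetylase activity of recombinant human isoforms is measured with FLUOR DE LYS, FLUOR DE LYS-Green or trifluoroacetyl-L-lysine substrates, supplied at 2× in 25 mM Tris-HCl, pH 8, 130 mM NaCl, 0.05% Tween-20, 10% glycerol. Both the enzyme-compound preincubation, of isoform-specific length, and the substrate reaction run at 30 °C.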

[3] = test system: B 697 promyelocytic cell line; test: Cytotoxicity on 697 cell line (CellTiter 96); type: cell-based; conditions: 72 hours incubation, read-out: 697 TOXICITY
Experimental: Cytotoxic activity was evaluated on B 697 […] cell line for all synthesized compounds and on peripheral blood mononuclear cells (PBMCs) for compounds showing a good potency/selectivity profile.
Cells were seeded in plate (2×10^4 cells per well for 697, 5×10^5 cells per well for PBMCs). The test compounds (concentrations from 1.5 nM to 10000 nM for PBMCs and from 1 nM to 10000 nM for 697) were added after 24 hours and incubated 72 hours. The molecules cytotoxic activity was evaluated using CellTiter 96© Aqueous One Solution Cell Proliferation Assay (Promega), which measures the mitochondria function, following the manufacturer's instructions.

[4] = Stability in rat plasma; type: in vitro ADME; conditions: after 4 hours, 37° C.
Experimental: In order to evaluate the stability to circulating enzymes, test compounds were incubated in human and rat plasma at 37° C. in a thermostated oscillating bath. Each test compound was incubated at μM (50 μM when the samples were analysed by UV/HPLC, 1 or 2 μM when the samples were analysed by LC-MS/MS) concentration for 0, 15, 30 min and 1, 2 and 4 hours. The reaction was stopped placing tubes on ice bath and adding acidified acetonitrile. After centrifugation for 10 minutes at 14000 rpm, an aliquot of the supernatant was diluted with water, filtered with 0.45 μm syringe filters and injected in HPLC-UV or in LC-MS/MS. The percentages of amount remaining at the various times of incubation with respect to initial amount were calculated. The half-life in plasma was also calculated.

SMILES	residual percentage in rat S9 fraction [1]	IC50 [2]	residual percentage in rat plasma [4]	IC50 [3]
O=C(NO)c1ccc(Cn2nnc(-c3ncccn3)n2)cc1 [comp. 123, 4-[(5-pyrimidin-2-yltetrazol-2-yl)methyl]benzenecarbohydroxamic acid]	99%	8 nM	99%	1970 nM
COC(=O)c1ccc(Cc2nnnn2Cc2c(F)cc(C(=O)NO)cc2F)cc1 [comp. 155, methyl 4-[[1-[[2,6-difluoro-4-(hydroxycarbamoyl)phenyl]methyl]tetrazol-5-yl]methyl]benzoate]		172 nM		22700 nM
O=C(O)c1ccc(Cc2nnn(Cc3ccc(C(=O)NO)cc3)n2)cc1 [comp. 158, 4-[[2-[[4-(hydroxycarbamoyl)phenyl]methyl]tetrazol-5-yl]methyl]benzoic acid]		231 nM		16900 nM
O=C(O)c1ccc(Cc2nnnn2Cc2ccc(C(=O)NO)cc2)cc1 [comp. 159, 4-[[1-[[4-(hydroxycarbamoyl)phenyl]methyl]tetrazol-5-yl]methyl]benzoic acid]		1370 nM		16900 nM
O=C(O)c1ccc(Cc2nnn(Cc3c(F)cc(C(=O)NO)cc3F)n2)cc1 [comp. 160, 4-[[2-[[2,6-difluoro-4-(hydroxycarbamoyl)phenyl]methyl]tetrazol-5-yl]methyl]benzoic acid]		115 nM		16900 nM
O=C(O)c1ccc(Cc2nnnn2Cc2c(F)cc(C(=O)NO)cc2F)cc1 [comp. 161, 4-[[1-[[2,6-difluoro-4-(hydroxycarbamoyl)phenyl]methyl]tetrazol-5-yl]methyl]benzoic acid]		327 nM		16900 nM
O=C(O)c1ccc(-c2nnn(Cc3ccc(C(=O)NO)cc3)n2)nc1 [comp. 162, 6-[2-[[4-(hydroxycarbamoyl)phenyl]methyl]tetrazol-5-yl]pyridine-3-carboxylic acid]		138 nM		16900 nM
NCc1ccc(-c2nnnn2Cc2ccc(C(=O)NO)cc2)cc1 [comp. 174, 4-[[5-[4-(aminomethyl)phenyl]tetrazol-1-yl]methyl]benzenecarbohydroxamic acid]		129 nM		50300 nM
COc1ccc(Cc2nnc(-c3cccs3)n2Cc2ccc(C(=O)NO)cc2)cc1OC [comp. 185, 4-[[3-[(3,4-dimethoxyphenyl)methyl]-5-(2-thienyl)-1,2,4-triazol-4-yl]methyl]benzenecarbohydroxamic acid]		1000 nM		10400 nM
O=C(NO)c1ccc(Cn2c(Cc3c[nH]c4ccccc34)nnc2-c2cccs2)cc1 [compound 183, 4-((3-((1H-indol-3-yl)methyl)-5-(thiophen-2-yl)-4H-1,2,4-triazol-4-yl)methyl)-N-hydroxybenzamide]		212 nM		50300 nM

Further compounds by falling IC50 [2], results first:

residual percentage in rat S9 fraction [1]	IC50 [2]	residual percentage in rat plasma [4]	SMILES	IC50 [3]
	27 nM		Cn1c(Sc2ccc(C(=O)NO)cc2)nnc1C1CCN(C(=O)OC(C)(C)C)CC1 [comp. 82, tert-butyl 4-[5-[4-(hydroxycarbamoyl)phenyl]sulfanyl-4-methyl-1,2,4-triazol-3-yl]piperidine-1-carboxylate]	6500 nM
91%	25 nM	76%	Cn1c(Sc2c(F)cc(C(=O)NO)cc2F)nnc1-c1cccnc1 [comp. 153, 3,5-difluoro-4-[[4-methyl-5-(3-pyridyl)-1,2,4-triazol-3-yl]sulfanyl]benzenecarbohydroxamic acid]	
34%	20 nM	106%	Cn1c(Sc2c(F)cc(C(=O)NO)cc2F)nnc1C(C)(C)c1ccccc1 [comp. 4, 3,5-difluoro-N-hydroxy-4-((4-methyl-5-(2-phenylpropan-2-yl)-4H-1,2,4-triazol-3-yl)thio)benzamide]	> 10000 nM
59%	20 nM		O=C(NO)c1cc(F)c(Sc2nnc(-c3ccncc3)n2Cc2ccco2)c(F)c1 [comp. 146, 3,5-difluoro-4-[[4-(2-furylmethyl)-5-(4-pyridyl)-1,2,4-triazol-3-yl]sulfanyl]benzenecarbohydroxamic acid]	> 10000 nM
36%	17 nM	97%	O=C(NO)c1cc(F)c(Cn2nnnc2-c2scc3c2OCCO3)c(F)c1 [comp. 5, 4-((5-(2,3-dihydrothieno[3,4-b][1,4]dioxin-5-yl)-1H-tetrazol-1-yl)methyl)-3,5-difluoro-N-hydroxybenzamide]	88700 nM
25%	12 nM	100%	Cn1c(Sc2c(F)cc(C(=O)NO)cc2F)nnc1-c1nccc2ccccc12 [comp. 121, 3,5-difluoro-4-[[5-(1-isoquinolyl)-4-methyl-1,2,4-triazol-3-yl]sulfanyl]benzenecarbohydroxamic acid]	5910 nM
47%	12 nM	94%	Cn1c(Sc2c(F)cc(C(=O)NO)cc2F)nnc1-c1ccc2ccccc2n1 [comp. 122, 3,5-difluoro-4-[[4-methyl-5-(2-quinolyl)-1,2,4-triazol-3-yl]sulfanyl]benzenecarbohydroxamic acid]	1030 nM
	12 nM		O=C(O)c1cccc(-c2nnn(Cc3ccc(C(=O)NO)cc3)n2)c1 [comp. 163, 3-[2-[[4-(hydroxycarbamoyl)phenyl]methyl]tetrazol-5-yl]benzoic acid]	49000 nM
84%	11 nM		Cn1c(Sc2c(F)cc(C(=O)NO)cc2F)nnc1-c1cnc2ccccn12 [comp. 149, 3,5-difluoro-4-[(5-imidazo[1,2-a]pyridin-3-yl-4-methyl-1,2,4-triazol-3-yl)sulfanyl]benzenecarbohydroxamic acid]	794 nM
	8 nM		Nc1ccc(-c2nnnn2Cc2ccc(C(=O)NO)cc2)cc1 [comp. 170, 4-[[5-(4-aminophenyl)tetrazol-1-yl]methyl]benzenecarbohydroxamic acid]	61400 nM
22%	7 nM	75%	O=C(NO)c1cc(F)c(Cn2nnnc2-c2nccc3ccccc23)c(F)c1 [comp. 94, 3,5-difluoro-4-[[5-(1-isoquinolyl)tetrazol-1-yl]methyl]benzenecarbohydroxamic acid]	908 nM
44%	4 nM	87%	O=C(NO)c1ccc(Cn2nnc(-c3ccco3)n2)cc1 [comp. 12, 4-((5-(furan-2-yl)-2H-tetrazol-2-yl)methyl)-N-hydroxybenzamide]	> 10000 nM

Reference: US11351178B2, “Selective HDAC6 inhibitors” (ITALFARMACO S.P.A., priority 2017, dated 2022)
